In US20070015723A1, “Antiviral oligonucleotides having a conserved G4 core sequence” (priority 1992, published 2007):
Values joined by “and” are separate entries in the source; they are usually repeats but may differ in a detail not shown here. Equal entries are not always repeated.

How the values were obtained:
HSV-1 (KOS) [1] = assay: HSV-1 infection ELISA assay; assay type: cell-based; settings: 50% inhibition of HSV replication relative to control infected cells; Table 1
HIV-1IIIB [2] = assay: Acute HIV infection assay (XTT, CEM cells); settings: inhibition of HIV
HIV-1IIIB [3] = test system: HIV-1IIIB
human cytomegalovirus = assay: Cytomegalovirus inhibition ELISA assay; assay type: cell-based; settings: HCMV
HSV-1 (KOS) [4] = assay: HSV-1 virus yield assay; assay type: cell-based; settings: for anti-HSV activity in virus yield assay: FIG. 2

Row | Substance | EC50 (HSV-1 (KOS) [1]) [nM] | IC50 (HIV-1IIIB [2]) | TI (TC50/IC50) (HIV-1IIIB [3]) | IC50 (human cytomegalovirus) [nM] | TC50 (CEM cell line) [nM] | anti-HSV activity in virus yield assay (HSV-1 (KOS) [4]) | antiviral activity in virus yield assay (HSV-1 (KOS) [4]; dose of 3 mM, FIG. 1)
1 | ISIS 5356: CGG GGT TGG GG, P = S, SEQ ID NO 25 (CGGGGTTGGGG; all phosphorothioate, sugars by position and methylation of C not given here) | 700 |  |  |  |  |  | 
2 | ISIS 5365: GA GAC CGG GGT TGG GG, P = S, SEQ ID NO 23 (GAGACCGGGGTTGGGG; all phosphorothioate, sugars by position and methylation of C not given here) | 470 |  |  |  |  |  | 
3 | ISIS 5366: TTGGGGTTGGGGTTGGGGTTG GGGG, P = S, SEQ ID NO 33 (TTGGGGTTGGGGTTGGGGTTGGGGG; all phosphorothioate, sugars by position not given here) | 160 | 80 nM and 100 nM | 220 | 100 | 22000 |  | 
4 | ISIS 5590: GGGG TT GGGG, P = O, SEQ ID NO 46 (GGGGTTGGGG; all phosphodiester, sugars by position not given here) | > 3000 | > 25000 nM |  |  | 20000 |  | 
5 | ISIS 5651: TT GGGG TT GGGG TT GGGG TT GGGG, P = S, SEQ ID NO 35 (TTGGGGTTGGGGTTGGGGTTGGGG; all phosphorothioate, sugars by position not given here) | 170 | 100 nM and 180 nM | 175 |  |  | dose-dependent anti-HSV activity | greater antiviral activity than did Acyclovir
6 | ISIS 5653: TT GGGG TT GGGG TT GGGG, P = S, SEQ ID NO 38 (TTGGGGTTGGGGTTGGGG; all phosphorothioate, sugars by position not given here) | 200 | 120 nM |  |  | 27000 | dose-dependent anti-HSV activity | 
7 | ISIS 5667: TT GGGG TT GGGG TT, P = O, SEQ ID NO 56 (TTGGGGTTGGGGTT; all phosphodiester, sugars by position not given here) |  | > 22000 nM |  |  | 5600 |  | 
8 | ISIS 5668: TT GGGG TT GGGG, P = O, SEQ ID NO 57 (TTGGGGTTGGGG; all phosphodiester, sugars by position not given here) |  | > 21000 nM |  |  | 5200 |  | 
9 | ISIS 5674: TT GGGG TT GGGG, P = S, SEQ ID NO 41 (TTGGGGTTGGGG; all phosphorothioate, sugars by position not given here) | 1500 | 430 nM |  |  | >200000 |  | 
10 | ISIS 5675: TT GGGG TT GGGG TT, P = S, SEQ ID NO 40 (TTGGGGTTGGGGTT; all phosphorothioate, sugars by position not given here) | 420 | 380 nM | 36 |  | 14000 |  | 
11 | ISIS 5676: GGGG TT GGGG TT GGGG, P = S, SEQ ID NO 39 (GGGGTTGGGGTTGGGG; all phosphorothioate, sugars by position not given here) | 230 | 180 nM and 280 nM | 114 |  |  | dose-dependent anti-HSV activity | 
12 | ISIS 5677: GGGG TT GGGG TT GGGG TT GGGG, P = S, SEQ ID NO 36 (GGGGTTGGGGTTGGGGTTGGGG; all phosphorothioate, sugars by position not given here) | 200 | 100 nM and 190 nM | 146 |  |  |  | 
